Source: PubChem BioAssay AID1745844 (Carcinogenic Potency Database (CPDB), 2022)
Active and inactive are the calls of the source. The rule behind the calls is not given here.

Tested on: rodent lifetime carcinogenesis bioassay, tumor incidence TD50
Assay: carcinogenic potency in animals, long-term in vivo studies, CPDB compilation (AID 1745844)
Conditions: for carcinogen call: strain Swiss/H/Riop, dosed 52 weeks

Clc1cc2c(cc1Cl)Oc1cc(Cl)c(Cl)cc1O2
TD50 (mouse, strain B6C3F1, females, by gavage, site: all sites, lesion: leukemia + lymphoma, dosed 104 weeks, study length 104 weeks): 0.000709 mg/kg/day
TD50 (mouse, strain B6C3F1, females, by gavage, site: all sites, lesion: lymphoma, histiocytic type, dosed 104 weeks, study length 104 weeks): 0.000705 mg/kg/day
TD50 (mouse, strain B6C3F1, females, by gavage, site: all sites, lesion: lymphoma, dosed 104 weeks, study length 104 weeks): 0.000682 mg/kg/day
TD50 (mouse, strain B6C3F1, females, by gavage, site: any site (literature study), lesion: several types, types named in the paper, dosed 104 weeks, study length 104 weeks): 0.000494 mg/kg/day
TD50 (mouse, strain B6C3F1, females, by gavage, site: liver + thyroid gland, lesion: hepatocellular adenoma + hepatocellular carcinoma + follicular-cell adenoma, dosed 104 weeks, study length 104 weeks): 0.000526 mg/kg/day
TD50 (mouse, strain B6C3F1, females, by gavage, site: liver, lesion: hepatocellular adenoma + hepatocellular carcinoma + neoplastic nodule, dosed 104 weeks, study length 104 weeks): 0.000756 mg/kg/day
TD50 (mouse, strain B6C3F1, females, by gavage, site: liver, lesion: hepatocellular adenoma + hepatocellular carcinoma, dosed 104 weeks, study length 104 weeks): 0.000756 mg/kg/day
TD50 (mouse, strain B6C3F1, females, by gavage, site: liver, lesion: hepatocellular carcinoma, dosed 104 weeks, study length 104 weeks): 0.0013 mg/kg/day
TD50 (mouse, strain B6C3F1, females, by gavage, site: subcutaneous tissue, lesion: fibrosarcoma, dosed 104 weeks, study length 104 weeks): 0.00172 mg/kg/day
TD50 (mouse, strain B6C3F1, females, by gavage, site: thyroid gland, lesion: follicular-cell adenoma, dosed 104 weeks, study length 104 weeks): 0.00159 mg/kg/day
TD50 (mouse, strain B6C3F1, males, by gavage, site: any site (literature study), lesion: several types, types named in the paper, dosed 104 weeks, study length 104 weeks): 0.000141 mg/kg/day
TD50 (mouse, strain B6C3F1, males, by gavage, site: liver, lesion: hepatocellular adenoma + hepatocellular carcinoma + neoplastic nodule, dosed 104 weeks, study length 104 weeks): 8.68e-05 mg/kg/day
TD50 (mouse, strain B6C3F1, males, by gavage, site: liver, lesion: hepatocellular adenoma + hepatocellular carcinoma, dosed 104 weeks, study length 104 weeks): 8.68e-05 mg/kg/day
TD50 (mouse, strain B6C3F1, males, by gavage, site: liver, lesion: hepatocellular adenoma, dosed 104 weeks, study length 104 weeks): 0.000271 mg/kg/day
TD50 (mouse, strain B6C3F1, males, by gavage, site: liver, lesion: hepatocellular carcinoma, dosed 104 weeks, study length 104 weeks): 0.000147 mg/kg/day
TD50 (mouse, strain B6C3F1, males, by gavage, site: lung, lesion: alveolar/bronchiolar adenoma + alveolar/bronchiolar carcinoma, dosed 104 weeks, study length 104 weeks): 0.000198 mg/kg/day
TD50 (mouse, strain B6C3F1, males, by gavage, site: lung, lesion: alveolar/bronchiolar adenoma, dosed 104 weeks, study length 104 weeks): 0.000219 mg/kg/day
carcinogen call (mouse, males, by gavage, site: liver, lesion: several types, types named in the paper, study length 104 weeks): positive
carcinogen call (mouse, males, by gavage, site: lung, lesion: one or several types, types not named, study length 104 weeks): negative (inactive)
TD50 (rat, strain Osborne-Mendel, females, by gavage, site: any site (literature study), lesion: several types, types named in the paper, dosed 104 weeks, study length 105 weeks): 0.00158 mg/kg/day
TD50 (rat, strain Osborne-Mendel, females, by gavage, site: liver, lesion: hepatocellular adenoma + hepatocellular carcinoma + neoplastic nodule, dosed 104 weeks, study length 105 weeks): 0.000127 mg/kg/day
TD50 (rat, strain Osborne-Mendel, females, by gavage, site: liver, lesion: hepatocellular carcinoma + neoplastic nodule, dosed 104 weeks, study length 105 weeks): 0.000127 mg/kg/day
TD50 (rat, strain Osborne-Mendel, females, by gavage, site: liver, lesion: neoplastic nodule, dosed 104 weeks, study length 105 weeks): 0.000154 mg/kg/day
TD50 (rat, strain Osborne-Mendel, males, by gavage, site: adrenal gland, lesion: cortical adenoma, dosed 104 weeks, study length 105 weeks): 1.21e-05 mg/kg/day
TD50 (rat, strain Osborne-Mendel, males, by gavage, site: any site (literature study), lesion: several types, types named in the paper, dosed 104 weeks, study length 105 weeks): 0.000133 mg/kg/day
TD50 (rat, strain Osborne-Mendel, males, by gavage, site: liver, lesion: hepatocellular adenoma + hepatocellular carcinoma + neoplastic nodule, dosed 104 weeks, study length 105 weeks): 0.000391 mg/kg/day
TD50 (rat, strain Osborne-Mendel, males, by gavage, site: liver, lesion: hepatocellular carcinoma + neoplastic nodule, dosed 104 weeks, study length 105 weeks): 0.000391 mg/kg/day
TD50 (rat, strain Osborne-Mendel, males, by gavage, site: liver, lesion: neoplastic nodule, dosed 104 weeks, study length 105 weeks): 0.000391 mg/kg/day
TD50 (rat, strain Osborne-Mendel, males, by gavage, site: subcutaneous tissue, lesion: fibroma, dosed 104 weeks, study length 105 weeks): 0.000169 mg/kg/day
TD50 (rat, strain Osborne-Mendel, males, by gavage, site: thyroid gland, lesion: follicular-cell adenoma + follicular-cell carcinoma, dosed 104 weeks, study length 105 weeks): 0.000101 mg/kg/day
TD50 (rat, strain Osborne-Mendel, males, by gavage, site: thyroid gland, lesion: follicular-cell adenoma, dosed 104 weeks, study length 105 weeks): 0.000113 mg/kg/day
TD50 (rat, strain Sprague-Dawley Spartan, females, in feed, site: hard palate/nasal turbinates, lesion: squamous-cell carcinoma, stratified, dosed 103 weeks, study length 103 weeks): 0.000205 mg/kg/day
TD50 (rat, strain Sprague-Dawley Spartan, females, in feed, site: liver, lesion: hepatocellular carcinoma, dosed 103 weeks, study length 103 weeks): 6.51e-05 mg/kg/day
TD50 (rat, strain Sprague-Dawley Spartan, females, in feed, site: liver, lesion: hepatocellular hyperplastic nodule, dosed 103 weeks, study length 103 weeks): 6.67e-06 mg/kg/day
TD50 (rat, strain Sprague-Dawley Spartan, females, in feed, site: liver, lesion: several types, types named in the paper, dosed 103 weeks, study length 103 weeks): 1.49e-05 mg/kg/day
TD50 (rat, strain Sprague-Dawley Spartan, females, in feed, site: lung, lesion: squamous-cell carcinoma, keratinized, dosed 103 weeks, study length 103 weeks): 0.000192 mg/kg/day
TD50 (rat, strain Sprague-Dawley Spartan, males, in feed, site: adrenal gland, lesion: cortical adenoma, dosed 103 weeks, study length 103 weeks): 0.000217 mg/kg/day
TD50 (rat, strain Sprague-Dawley Spartan, males, in feed, site: hard palate/nasal turbinates, lesion: squamous-cell carcinoma, stratified, dosed 103 weeks, study length 103 weeks): 0.000393 mg/kg/day
TD50 (rat, strain Sprague-Dawley Spartan, males, in feed, site: tongue, lesion: squamous-cell carcinoma, stratified, dosed 103 weeks, study length 103 weeks): 0.000628 mg/kg/day
TD50 (rat, strain Sprague-Dawley, males, in feed, site: liver, lesion: several types, types named in the paper, dosed 78 weeks, study length 95 weeks): 8.31e-05 mg/kg/day
TD50 (rat, strain Sprague-Dawley, males, in feed, site: lung, lesion: squamous-cell tumor, dosed 78 weeks, study length 95 weeks): 7.96e-05 mg/kg/day
